In brackets after ≈: the same amount, converted by molar mass. Where two headings read alike, the source gives them in different places.
Experiments:
Assay type in all cases: cell-based
Rhizoctonia solani (Rs) = assay: In vitro pathogen growth inhibition assay, Rs (mycelial plugs); details: Rhizoctonia solani, 48 h
Method in brief: (§1)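 Spores of Dm, Fv and Pc were diluted in 17% V8 liquid medium; Rs used 1.5 mm mycelial plugs in ¼ PDB. Compounds from 2.5 mg/ml DMSO stocks were combined with inoculum, growth was read by OD600 at 24 and 48 h with blank subtraction, and the reported value is the concentration giving ≥90% inhibition.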

Diplodia maydis (Dm) = assay: In vitro pathogen growth inhibition assay, Dm; details: Stenocarpella maydis, 48 h
Method in brief: as §1

Septoria tritici (St) = assay: In vitro pathogen growth inhibition assay, St; details: Zymoseptoria tritici, 48 h
Method in brief: (§2)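 Spores in 17% V8 liquid medium, or 1.5 mm Rs mycelial plugs in ¼ PDB, incubated with compound; final concentration checked by OD600 for precipitation. OD readings at 24 and 48 h, blank-subtracted, plus visual ratings; value is concentration giving ≥90% growth inhibition.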

[1] = system: Phytophthora capsici (Pc); assay: In vitro pathogen growth inhibition assay, Pc; details: 48 h
Method in brief: as §1

[2] = system: Collectotrichum graminicola (Cg); assay: In vitro pathogen growth inhibition assay, Cg; details: 48 h
Method in brief: as §2

[3] = system: Fusarium moniliforme (Fm); assay: In vitro pathogen growth inhibition assay, Fm; details: Fusarium verticillioides
Method in brief: as §2

Botrtyis cinerea (Bc) = assay: In vitro pathogen growth inhibition assay, Bc; details: 48 h
Method in brief: as §2

[4] = system: Fusarium virguliforme (Fv); assay: In vitro pathogen growth inhibition assay, Fv
Method in brief: as §1

[5] = ≥90% inhibition, mycelial plugs, 48 hours vs 2% DMSO control, read-out: Compound Concentration (ppm) sufficient for ≥90% inhibition of growth, Rs
[6] = ≥90% inhibition, 48 hours vs 2% DMSO control, read-out: Compound Concentration (ppm) sufficient for ≥90% inhibition of growth, Dm
[7] = ≥90% inhibition, 48 hours vs 2% DMSO control, read-out: Compound Concentration (ppm) sufficient for ≥90% inhibition of growth, St
[8] = ≥90% inhibition, 48 hours vs 2% DMSO control, read-out: Compound Concentration (ppm) sufficient for ≥90% inhibition of growth, Pc
[9] = ≥90% inhibition, 48 hours vs 2% DMSO control, read-out: Compound Concentration (ppm) sufficient for ≥90% inhibition of growth, Cg
[10] = ≥90% inhibition, 48 hours vs 2% DMSO control, read-out: Compound Concentration (ppm) sufficient for ≥90% inhibition of growth, Fm
[11] = ≥90% inhibition, 48 hours vs 2% DMSO control, read-out: Compound Concentration (ppm) sufficient for ≥90% inhibition of growth, Bc
[12] = ≥90% inhibition, 48 hours vs 2% DMSO control, read-out: Compound Concentration (ppm) sufficient for ≥90% inhibition of growth, Fv
[13] = ≥90% growth inhibition, mycelial plugs, 48 hours, vs 2% DMSO control, read-out: Compound Concentration (ppm) sufficient for ≥90% inhibition of Rs
[14] = ≥90% growth inhibition, 48 hours, vs 2% DMSO control, read-out: Compound Concentration (ppm) sufficient for ≥90% inhibition of Dm
[15] = ≥90% growth inhibition, 48 hours, vs 2% DMSO control, read-out: Compound Concentration (ppm) sufficient for ≥90% inhibition of St
[16] = ≥90% growth inhibition, 48 hours, vs 2% DMSO control, read-out: Compound Concentration (ppm) sufficient for ≥90% inhibition of Pc
[17] = ≥90% growth inhibition, 48 hours, vs 2% DMSO control, read-out: Compound Concentration (ppm) sufficient for ≥90% inhibition of Cg
[18] = ≥90% growth inhibition, 48 hours, vs 2% DMSO control, read-out: Compound Concentration (ppm) sufficient for ≥90% inhibition of Fm
[19] = ≥90% growth inhibition, 48 hours, vs 2% DMSO control, read-out: Compound Concentration (ppm) sufficient for ≥90% inhibition of Bc
[20] = ≥90% growth inhibition, 48 hours, vs 2% DMSO control, read-out: Compound Concentration (ppm) sufficient for ≥90% inhibition of Fv
[21] = concentration sufficient to ≥90% inhibition of growth, 48 hours vs 2% DMSO control, read-out: Compound Concentration (ppm) for ≥90% inhibition, Rs
[22] = concentration sufficient to ≥90% inhibition of growth, 48 hours vs 2% DMSO control, read-out: Compound Concentration (ppm) for ≥90% inhibition, Dm
[23] = concentration sufficient to ≥90% inhibition of growth, 48 hours vs 2% DMSO control, read-out: Compound Concentration (ppm) for ≥90% inhibition, St
[24] = concentration sufficient to ≥90% inhibition of growth, 48 hours vs 2% DMSO control, read-out: Compound Concentration (ppm) for ≥90% inhibition, Pc
[25] = concentration sufficient to ≥90% inhibition of growth, 48 hours vs 2% DMSO control, read-out: Compound Concentration (ppm) for ≥90% inhibition, Cg
[26] = concentration sufficient to ≥90% inhibition of growth, 48 hours vs 2% DMSO control, read-out: Compound Concentration (ppm) for ≥90% inhibition, Fm
[27] = concentration sufficient to ≥90% inhibition of growth, 48 hours vs 2% DMSO control, read-out: Compound Concentration (ppm) for ≥90% inhibition, Bc
[28] = concentration sufficient to ≥90% inhibition of growth, 48 hours vs 2% DMSO control, read-out: Compound Concentration (ppm) for ≥90% inhibition, Fv

IC90 (Rhizoctonia solani (Rs); [5])	IC90 (Diplodia maydis (Dm); [6])	IC90 (Septoria tritici (St); [7])	IC90 [1, 8]	IC90 [2, 9]	IC90 [3, 10]	IC90 (Botrtyis cinerea (Bc); [11])	IC90 [4, 12]	SMILES	further results
10 µg/mL (≈ 17.4 µM)	> 50 µg/mL	> 50 µg/mL	> 50 µg/mL	> 50 µg/mL	0.08 µg/mL (≈ 0.139 µM)	> 50 µg/mL	≥ 2 µg/mL	COCCO[C@@H](Cn1c(=O)n(CC(=O)NC(C)C)c(=O)c2c(C)c(-n3nccn3)sc21)c1cc(F)ccc1OC [Compound I-086]	
2 µg/mL (≈ 3.37 µM)	2 µg/mL (≈ 3.37 µM)	> 50 µg/mL	> 50 µg/mL	2 µg/mL (≈ 3.37 µM)	0.4 µg/mL (≈ 0.674 µM)	2 µg/mL (≈ 3.37 µM)	10 µg/mL (≈ 16.8 µM)	COc1ccccc1[C@H](Cn1c(=O)n(C(C)(C)C(=O)N2CCCC2)c(=O)c2c(C)c(-n3cccn3)sc21)OCC(C)C [Compound I-120]	
								COc1ccc(F)cc1[C@H](Cn1c(=O)n(C(C)(C)C(=O)NC(C)C)c(=O)c2c(C)c(-n3cccn3)sc21)OCC#N [Compound I-257]	IC90 (Rhizoctonia solani (Rs); [13]): 2 µg/mL (≈ 3.43 µM); IC90 (Diplodia maydis (Dm); [14]): 50 µg/mL (≈ 85.8 µM); IC90 (Septoria tritici (St); [15]): > 50 µg/mL; IC90 [1, 16]: > 50 µg/mL; IC90 [2, 17]: 2 µg/mL (≈ 3.43 µM); IC90 [3, 18]: 0.4 µg/mL (≈ 0.687 µM); IC90 (Botrtyis cinerea (Bc); [19]): 2 µg/mL (≈ 3.43 µM); IC90 [4, 20]: 0.4 µg/mL (≈ 0.687 µM)
								Cc1c(-n2cccn2)sc2c1c(=O)n(C(C)(C)C(=O)NC(C)C)c(=O)n2CCc1cc(F)ccc1OCCO [Compound I-337]	IC90 (Rhizoctonia solani (Rs); [21]): 10 µg/mL (≈ 17.9 µM); IC90 (Diplodia maydis (Dm); [22]): > 50 µg/mL; IC90 (Septoria tritici (St); [23]): > 50 µg/mL; IC90 [1, 24]: > 50 µg/mL; IC90 [2, 25]: > 50 µg/mL; IC90 [3, 26]: 10 µg/mL (≈ 17.9 µM); IC90 (Botrtyis cinerea (Bc); [27]): 50 µg/mL (≈ 89.7 µM); IC90 [4, 28]: 10 µg/mL (≈ 17.9 µM)
0.4 µg/mL (≈ 0.698 µM)	0.4 µg/mL (≈ 0.698 µM)	10 µg/mL (≈ 17.5 µM)	> 50 µg/mL	0.4 µg/mL (≈ 0.698 µM)	0.08 µg/mL (≈ 0.14 µM)	0.4 µg/mL (≈ 0.698 µM)	≥ 0.08 µg/mL	CCO[C@@H](Cn1c(=O)n(C(C)(C)C(=O)NC(C)C)c(=O)c2c(C)c(-n3nccn3)sc21)c1cc(F)ccc1OC [Compound I-054]	
2 µg/mL (≈ 3.07 µM)	10 µg/mL (≈ 15.3 µM)	> 50 µg/mL	> 50 µg/mL	≥ 2 µg/mL	0.4 µg/mL (≈ 0.614 µM)	2 µg/mL (≈ 3.07 µM)	≥ 2 µg/mL	COc1ccc(F)cc1[C@H](Cn1c(=O)n(C(C)(C)C(=O)N2CCCC2)c(=O)c2c(C)c(-n3cccn3)sc21)OC1CCC(=O)CC1 [Compound I-122]	
								CCOC(=O)c1sc2c(c1C)c(=O)n([C@@H](C)C(=O)N1CCCC1)c(=O)n2C[C@H](OCCC#N)c1cc(F)ccc1OC [Compound I-225]	IC90 (Rhizoctonia solani (Rs); [13]): 10 µg/mL (≈ 16.6 µM); IC90 (Diplodia maydis (Dm); [14]): > 10 µg/mL; IC90 (Septoria tritici (St); [15]): > 50 µg/mL; IC90 [1, 16]: > 50 µg/mL; IC90 [2, 17]: > 50 µg/mL; IC90 [3, 18]: 2 µg/mL (≈ 3.33 µM); IC90 (Botrtyis cinerea (Bc); [19]): 10 µg/mL (≈ 16.6 µM); IC90 [4, 20]: ≥ 50 µg/mL
								CCOC(=O)c1sc2c(c1C)c(=O)n([C@@H](C)C(N)=O)c(=O)n2C[C@H](OCCC#N)c1cc(F)ccc1OC [Compound I-227]	IC90 (Rhizoctonia solani (Rs); [21]): 0.4 µg/mL (≈ 0.732 µM); IC90 (Diplodia maydis (Dm); [22]): > 50 µg/mL; IC90 (Septoria tritici (St); [23]): > 50 µg/mL; IC90 [1, 24]: > 50 µg/mL; IC90 [2, 25]: > 50 µg/mL; IC90 [3, 26]: 10 µg/mL (≈ 18.3 µM); IC90 (Botrtyis cinerea (Bc); [27]): 50 µg/mL (≈ 91.5 µM); IC90 [4, 28]: > 50 µg/mL
≥ 2 µg/mL	> 50 µg/mL	> 50 µg/mL	> 50 µg/mL	≥ 2 µg/mL	0.4 µg/mL (≈ 0.7 µM)	2 µg/mL (≈ 3.5 µM)	0.4 µg/mL (≈ 0.7 µM)	CCO[C@@H](Cn1c(=O)n(C(C)(C)C(=O)NC(C)C)c(=O)c2c(C)c(-n3cccn3)sc21)c1cc(F)ccc1OC [Compound I-125]	
10 µg/mL (≈ 15.9 µM)	≥ 2 µg/mL	≥ 50 µg/mL	> 50 µg/mL	≥ 2 µg/mL	0.4 µg/mL (≈ 0.637 µM)	2 µg/mL (≈ 3.19 µM)	2 µg/mL (≈ 3.19 µM)	COc1ccc(F)cc1[C@H](Cn1c(=O)n(C(C)(C)C(=O)NC(C)C)c(=O)c2c(C)c(-n3cccn3)sc21)OC1CCOCC1 [Compound I-115]	

Source: patent US10941157B2, “Pesticidal compositions and uses thereof” (Gilead Apollo, LLC, priority 2015, dated 2021)
